Measurements from ChEMBL document CHEMBL3091360, “Homosecoiridoid alkaloids with amino acid units from the flower buds of Lonicera japonica” (J Nat Prod, 2013).
Active and inactive are the calls of the source. The rule behind the calls is not given here.

How the values were obtained:
[1] = test system: Human immunodeficiency virus 1; assay: Antiviral activity against HIV1 infected in human 293T cells expressing VSV-G assessed as inhibition of viral p24 production at 10 uM after 48 hrs by ELISA; type: functional, organism-based
KETR3 = assay: Cytotoxicity against human Ketr3 cells at 10 uM after 96 hrs by MTT assay; type: functional, cell-based
MCF7 = assay: Cytotoxicity against human MCF7 cells at 10 uM after 96 hrs by MTT assay; type: functional, cell-based
Bel-7402 = assay: Cytotoxicity against human Bel7402 cells at 10 uM after 96 hrs by MTT assay; type: functional, cell-based
HCT-8 = assay: Cytotoxicity against human HCT8 cells at 10 uM after 96 hrs by MTT assay; type: functional, cell-based
BGC-823 = assay: Cytotoxicity against human BGC823 cells at 10 uM after 96 hrs by MTT assay; type: functional, cell-based
[2] = Antiinflammatory activity in rat polymorphonuclear leukocytes assessed as inhibition of PAF-induced release of glucuronidase at 10 uM; type: functional
A549 = assay: Cytotoxicity against human A549 cells at 10 uM after 96 hrs by MTT assay; type: functional, cell-based
Influenza A virus H3N2 = assay: microbe, parasite or virus in culture; conditions: Hanfang/359/95

| Compound | inhibition [1] | Activity (KETR3) | Activity (MCF7) | Activity (Bel-7402) | Activity (HCT-8) | Activity (BGC-823) | inhibition at 10 µM [2] | Activity (A549) | IC50 (Influenza A virus H3N2) |
| --- | --- | --- | --- | --- | --- | --- | --- | --- | --- |
| C=C[C@H]1[C@H](O[C@@H]2O[C@H](CO)[C@@H](O)[C@H](O)[C@H]2O)OC=C(C(=O)OC)[C@H]1/C=C/c1cc(C(=O)O)c[n+]([C@H](C(=O)[O-])C(C)C)c1 | inactive | inactive | inactive | inactive | inactive | inactive | < 30% | inactive | – |
| COC(=O)C1=CO[C@@H]2C[C@H]1C[C@@H]1C(C(=O)OC)=CO[C@@H](O[C@@H]3O[C@H](CO)[C@@H](O)[C@H](O)[C@H]3O)[C@@H]12 | inactive | inactive | inactive | inactive | inactive | inactive | < 30% | inactive | – |
| COc1cc(/C=C/CO)cc(OC)c1O[C@@H]1O[C@H](CO)[C@@H](O)[C@H](O)[C@H]1O [SYRINGIN] | inactive | inactive | inactive | inactive | inactive | inactive | < 30% | inactive | – |
| O=C(/C=C/c1ccc(O)c(O)c1)O[C@@H]1C[C@@](O)(C(=O)O)C[C@@H](O)[C@H]1O | inactive | inactive | inactive | inactive | inactive | inactive | < 30% | inactive | – |
| C=C[C@H]1[C@H](O[C@@H]2O[C@H](CO)[C@@H](O)[C@H](O)[C@H]2O)OC=C(C(N)=O)[C@H]1/C=C/c1ccc[n+]([C@@H](CCC(=O)O)C(=O)[O-])c1 | inactive | inactive | inactive | inactive | inactive | inactive | < 30% | inactive | – |
| C=C[C@H]1[C@H](O[C@@H]2O[C@H](CO)[C@@H](O)[C@H](O)[C@H]2O)OC=C(C(=O)[O-])[C@H]1/C=C\c1ccc[n+]([C@H](Cc2ccccc2)C(=O)O)c1 | inactive | inactive | inactive | inactive | inactive | inactive | < 30% | inactive | – |
| COc1cc(C(=O)O)ccc1O[C@@H]1O[C@H](COC(=O)c2ccccc2)[C@@H](O)[C@H](O)[C@H]1O | inactive | inactive | inactive | inactive | inactive | inactive | < 30% | inactive | – |
| C[C@@H]1C(=O)O[C@H]2[C@H](O)[C@@]34[C@H]5C[C@@H](C(C)(C)C)[C@]36[C@@H](OC(=O)[C@@H]6O)O[C@@]4(C(=O)O5)[C@@]12O [GINKOLIDE B] | inactive | inactive | inactive | inactive | inactive | inactive | 78% | inactive | – |
| CCOC(=O)C1=C[C@@H](OC(CC)CC)[C@H](NC(C)=O)[C@@H](N)C1 [OSELTAMIVIR] | – | – | – | – | – | – | – | – | 1.3 µM |
| C=C[C@H]1[C@H](O[C@@H]2O[C@H](CO)[C@@H](O)[C@H](O)[C@H]2O)OC=C(C(=O)OC)[C@H]1/C=C/CC(=O)OC | inactive | inactive | inactive | inactive | inactive | inactive | < 30% | inactive | – |
| O=C(O)c1ccc(O)c(O)c1 [PROTOCATECHUIC ACID] | inactive | inactive | inactive | inactive | inactive | inactive | < 30% | inactive | – |
| O=C(O)/C=C/c1ccc(O[C@@H]2O[C@H](CO)[C@@H](O)[C@H](O)[C@H]2O)c(O)c1 | inactive | inactive | inactive | inactive | inactive | inactive | < 30% | inactive | – |
| Nc1ncnc2c1ncn2[C@@H]1O[C@H](CO)[C@@H](O)[C@H]1O [ADENOSINE] | inactive | inactive | inactive | inactive | inactive | inactive | < 30% | inactive | – |
| O=C(/C=C/c1ccc(O)c(O)c1)O[C@@H]1[C@H](O)C[C@@](O)(C(=O)O)C[C@H]1OC(=O)/C=C/c1ccc(O)c(O)c1 | inactive | inactive | inactive | inactive | inactive | inactive | < 30% | inactive | 10.2 µM |
| O=C(/C=C/c1ccc(O)c(O)c1)O[C@@H]1C[C@](O)(C(=O)O)C[C@@H](OC(=O)/C=C/c2ccc(O)c(O)c2)[C@H]1O | inactive | inactive | inactive | inactive | inactive | inactive | < 30% | inactive | 4.9 µM |
| O=C(/C=C/c1ccc(O)c(O)c1)O[C@@H]1C[C@](O)(C(=O)O)C[C@@H](O)[C@H]1O [CHLOROGENIC ACID] | inactive | inactive | inactive | inactive | inactive | inactive | < 30% | inactive | – |
| O=C(O)/C=C/c1ccc(O)c(O)c1 [CAFFEIC ACID] | inactive | inactive | inactive | inactive | inactive | inactive | 40.3% | inactive | – |
| O=C(OCc1ccccc1)c1c(O)cccc1O[C@@H]1O[C@H](CO)[C@@H](O)[C@H](O)[C@H]1O | inactive | inactive | inactive | inactive | inactive | inactive | < 30% | inactive | – |
| C=C[C@H]1[C@H](O[C@@H]2O[C@H](CO)[C@@H](O)[C@H](O)[C@H]2O)OC=C(C(=O)OC)[C@H]1/C=C/c1ccc[n+]([C@@H](C)C(=O)[O-])c1 | inactive | inactive | inactive | inactive | inactive | inactive | 72.3% | inactive | – |
| COC(=O)[C@]1(O)C[C@@H](O)[C@@H](O)[C@H](OC(=O)/C=C/c2ccc(O)c(O)c2)C1 [CHLOROGENIC ACID METHYL ESTER] | inactive | inactive | inactive | inactive | inactive | inactive | < 30% | inactive | – |
| C=C[C@H]1[C@H](O[C@@H]2O[C@H](CO)[C@@H](O)[C@H](O)[C@H]2O)OC=C(C(=O)[O-])[C@H]1/C=C/c1cc(C(=O)O)c[n+]([C@H](C(=O)O)[C@@H](C)CC)c1 | inactive | inactive | inactive | inactive | inactive | inactive | < 30% | inactive | – |
| O=C(/C=C/c1ccc(O)c(O)c1)O[C@H]1[C@H](O)C[C@@](O)(C(=O)O)C[C@H]1O | inactive | inactive | inactive | inactive | inactive | inactive | < 30% | inactive | – |
| COC(=O)C1=CO[C@@H](O[C@@H]2O[C@H](CO)[C@@H](O)[C@H](O)[C@H]2O)[C@H]2[C@@H]1CC(=O)[C@@H]2C | inactive | inactive | inactive | inactive | inactive | inactive | < 30% | inactive | – |
| O=C(O)c1cc(O[C@@H]2O[C@H](CO)[C@@H](O)[C@H](O)[C@H]2O)ccc1O | inactive | inactive | inactive | inactive | inactive | inactive | < 30% | inactive | – |
| C=C[C@H]1[C@H](O[C@@H]2O[C@H](CO)[C@@H](O)[C@H](O)[C@H]2O)OC=C(C(=O)OC)[C@H]1CC(=O)OC | inactive | inactive | inactive | inactive | inactive | inactive | < 30% | inactive | – |
